We go through nine compounds from patent US20240425523A1, “Compounds for the Degradation of EGFR Kinase” (Beigene Switzerland GMBH, priority 2023, published 2024).

Type in all cases: cell-based
In assay [1] the target is T1, EGFR L858R (BaF3-L858R cells) (Homo sapiens, UniProt P00533, L858R).
T1 construct: host or cells: BaF3
The experiment in a line: Cell degradation of EGFR, HTRF assay, BaF3-L858R cells. The note with it: 16 h treatment; for DC50: EGFR degradation; for Dmax: maximum percentage of degradation. In short, it runs like this: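 BaF3-L858R cells treated 16 h at 37° C, 5% CO2 with compound (top 10 uM final, 5-fold, 8 doses, 0.1% DMSO). DC50 from four-parameter fit; Dmax is maximum percent degradation.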
A general note: Time-resolved FRET reads energy transfer from a long-lived donor to a nearby acceptor.

Assay [2] concerns the target T2, EGFR-L858R/C797S (H1975-clone #8 cells) (Homo sapiens, UniProt P00533, C797S/L858R).
T2 construct: expressed in transfected cells; host or cells: H1975 (endogenous EGFR knocked out, clone #8)
Kind of assay: Cell degradation of EGFR, HTRF assay, H1975-clone#8 (L858R/C797S) cells. The note with it: 16 h treatment; for DC50: EGFR degradation; for Dmax: maximum percentage of degradation.

Assay [3] addresses p-EGFR Del19/C797S (H1975-clone #23 cells) (Homo sapiens, UniProt P00533). The experiment in a line: Cell p-EGFR inhibition assay, HTRF, H1975-clone#23 (DEL19/C797S) cells. The note with it: 16 h treatment; for Imax (%): maximum percentage of pEGFR inhibition; for IC50: pEGFR inhibition. A digest of the protocol: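 Phospho-EGFR read by overnight HTRF on lysates, normalized to DMSO-treated high control; IC50, Hill slope and Imax fitted. Compounds were applied for 16 h (10 uM top, 5-fold steps, 8 doses) to an H1975 single clone carrying only exogenous Del19/C797S EGFR after sgRNA knockout of endogenous copies.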

Assay [4] deals with T3, p-EGFR L858R (BaF3-L858R cells) (Homo sapiens, UniProt P00533, L858R).
T3 construct: host or cells: BaF3
The experiment in a line: Cell p-EGFR inhibition assay, HTRF, BaF3-L858R cells. To be noted: 16 h treatment; for Imax (%): maximum percentage of pEGFR inhibition; for IC50: pEGFR inhibition. A digest of the protocol:
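BaF3-L858R cells treated 16 h at 37 °C, 5% CO2 with compound from 10 uM top, 5-fold dilutions, 8 doses, in 0.1% DMSO medium. Lysates read overnight by HTRF p-EGFR antibodies; IC50 fitted to four-parameter curve against DMSO high control.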

Broadly, the DC50 is the concentration giving 50% degradation. The term Dmax denotes the greatest extent of degradation seen. The low end stands for shallow degradation, the high end for deep degradation. The term IC50 denotes the point on the concentration scale where inhibition reaches its midpoint. For `Cc1cc2cc(n1)-c1c(C)nn(C)c1OC[C@H]1CCC(C1)CN1/C(=N/C2=O)Nc2ccc(N3CCC(N(C)C4CCN(c5cc(F)c([C@H]6CCC(=O)NC6=O)c(F)c5)CC4)CC3)cc21` [Example 136, (R)-3-(2,6-difluoro-4-(4-(methyl(1-((7^1R,7^3S,E)-1^1,1^3,2^6-trimethyl-3-oxo-5^2,5^3-dihydro-1^1H,5^1H-9-oxa-4-aza-5(2,1)-benzo[d]imidazola-2(2,4)-pyridina-1(4,5)-pyrazola-7(1,3)-cyclopentanacyclononaphane-5^6-yl)piperidin-4-yl)amino)piperidin-1-yl)phenyl)piperidine-2,6-dione], in assay [1], half-maximal degradation (DC50) was put at 3.52 nM and the Dmax came out at 81.1%. In assay [2], this compound showed a DC50 of 0.152 nM and a maximal degradation (Dmax) of 76.1%. In addition, in assay [3], the “Imax (%)” value was 103.49% and the midpoint of inhibition, the IC50, lay at 1.44 nM. In assay [4], the “Imax (%)” value was 104.73% and the IC50 was determined as 8.91 nM.

`Cc1cc2cc(n1)-c1c(C)nn(C)c1OC[C@H]1CCC(C1)CN1/C(=N/C2=O)Nc2ccc(N3CCN([C@@H]4CCN(c5cc(F)c(C6CCC(=O)NC6=O)nc5C)C[C@@H]4F)CC3)cc21` (stereo partly drawn) [Example 82, 3-(3-fluoro-5-((3S,4R)-3-fluoro-4-(4-((7^1R,7^3S,E)-1^1,1^3,2^6-trimethyl-3-oxo-5^2,5^3-dihydro-1^1H,5^1H-9-oxa-4-aza-5(2,1)-benzo[d]imidazola-2(2,4)-pyridina-1(4,5)-pyrazola-7(1,3)-cyclopentanacyclononaphane-5^6-yl)piperazin-1-yl)piperidin-1-yl)-6-methylpyridin-2-yl)piperidine-2,6-dione]: the DC50 in assay [1] turned out to be 0.31 nM; in assay [2], 0.8 nM. The greatest degradation seen (Dmax) in assay [1] came out at 74.1%; in assay [2], 89.2%. Further, the figures for the “Imax (%)” value in assay [3] and in assay [4] were 101.1% and 91.9%, respectively. Besides, the half-maximal inhibitory concentration (IC50) in assay [3] was 1.1 nM; in assay [4], 3.1 nM.

In assay [1], `Cc1cc2cc(n1)-c1cnn(C)c1OC[C@H]1CCC(C1)CN1/C(=N/C2=O)Nc2cc(F)c(N3CCN(C4CCN(c5cnc(C6CCC(=O)NC6=O)cc5C)CC4)CC3)cc21` (stereo partly drawn) [Example 100, 3-(5-(4-(4-((7^1R,7^3S,E)-5^5-fluoro-1^1,2^6-dimethyl-3-oxo-5^2,5^3-dihydro-1^1H,5^1H-9-oxa-4-aza-5(2,1)-benzo[d]imidazola-2(2,4)-pyridina-1(4,5)-pyrazola-7(1,3)-cyclopentanacyclononaphane-5^6-yl)piperazin-1-yl)piperidin-1-yl)-4-methylpyridin-2-yl)piperidine-2,6-dione] displayed a DC50 of 3.34 nM and a Dmax of 72.3%. In assay [2], this compound yielded a 50% degradation concentration (DC50) of 3.07 nM and a Dmax of 87.3%. Besides, in assay [3], the “Imax (%)” value was 101% and the 50% inhibitory concentration (IC50) was determined as 0.5 nM. In assay [4], the “Imax (%)” value was found to be 107.3% and the IC50 amounted to 6.7 nM.

With `Cc1cc2cc(n1)-c1cnn(C)c1OC[C@H]1CCC(C1)CN1/C(=N/C2=O)Nc2ccc(N3CC4(C3)CN(C3CCN(c5cc(F)c([C@H]6CCC(=O)NC6=O)c(F)c5)CC3)C4)cc21` [Example 117, (R)-3-(4-(4-(6-((7^1R,7^3S,E)-1^1,2^6-dimethyl-3-oxo-5^2,5^3-dihydro-1^1H,5^1H-9-oxa-4-aza-5(2,1)-benzo[d]imidazola-2(2,4)-pyridina-1(4,5)-pyrazola-7(1,3)-cyclopentanacyclononaphane-5^6-yl)-2,6-diazaspiro[3.3]heptan-2-yl)piperidin-1-yl)-2,6-difluorophenyl)piperidine-2,6-dione], in assay [1], it took 1.11 nM to reach half-maximal degradation (DC50) and the Dmax was determined as 78%. In assay [2], this compound gave a half-maximal degradation concentration (DC50) of 0.92 nM and a Dmax of 80.6%. Moreover, in assay [3], the “Imax (%)” value was 100% and the IC50 came to 0.6 nM. In assay [4], the “Imax (%)” value worked out at 97.1% and the half-inhibitory concentration (IC50) was 14.9 nM.

In the case of `COC[C@H]1CN(c2ccc3c(c2)N2CC4CC[C@H](COc5c(c(C(F)(F)F)nn5C)-c5cc(cc(C)n5)C(=O)/N=C/2N3)C4)CCN1C1CCN(c2cc(F)c([C@H]3CCC(=O)NC3=O)c(F)c2)CC1` [Example 95, (R)-3-(4-(4-((R)-4-((7^1R,7^3S,E)-1^1,2^6-dimethyl-3-oxo-1^3-(trifluoromethyl)-5^2,5^3-dihydro-1^1H,5^1H-9-oxa-4-aza-5(2,1)-benzo[d]imidazola-2(2,4)-pyridina-1(4,5)-pyrazola-7(1,3)-cyclopentanacyclononaphane-5^6-yl)-2-(methoxymethyl)piperazin-1-yl)piperidin-1-yl)-2,6-difluorophenyl)piperidine-2,6-dione], the 50% degradation concentration (DC50) in assay [1] came to 8.5 nM; in assay [2], 12.1 nM. In addition, the greatest degradation seen (Dmax) in assay [1] amounted to 86.5%; in assay [2], 79%. Besides, the “Imax (%)” value in assay [3] stood at 101%; in assay [4], 99.3%. Also, the results for the IC50 in assay [3] and in assay [4] were 4.5 nM and 10.8 nM, respectively.

In assay [1], `Cc1cc2cc(n1)-c1cnn(C)c1OC[C@H]1CCC(C1)CN1/C(=N/C2=O)Nc2ccc(N3CCN(C4CCN(c5cc(F)c([C@H]6CCC(=O)NC6=O)c(F)c5)CC4)[C@@H](CO)C3)cc21` [Example 75, (R)-3-(4-(4-((R)-4-((7^1R,7^3S,E)-1^1,2^6-dimethyl-3-oxo-5^2,5^3-dihydro-1^1H,5^1H-9-oxa-4-aza-5(2,1)-benzo[d]imidazola-2(2,4)-pyridina-1(4,5)-pyrazola-7(1,3)-cyclopentanacyclononaphane-5^6-yl)-2-(hydroxymethyl)piperazin-1-yl)piperidin-1-yl)-2,6-difluorophenyl)piperidine-2,6-dione] showed a DC50 of 1.6 nM and a maximal degradation (Dmax) of 82.7%. In assay [2], the 50% degradation concentration (DC50) came to 0.97 nM and the Dmax was 61.3%. Further, in assay [3], the “Imax (%)” value worked out at 101.1% and the IC50 stood at 0.6 nM. In assay [4], the “Imax (%)” value worked out at 92.6% and the IC50 was found to be 7.9 nM.

In assay [1], `CCc1nn(C)c2c1-c1cc(cc(C)n1)C(=O)/N=C1\Nc3ccc(N4CCN(C5CCN(c6cc(F)c([C@H]7CCC(=O)NC7=O)c(F)c6)CC5)[C@@H](COC)C4)cc3N1C[C@@H]1CC[C@H](CO2)C1` [Example 175, (R)-3-(4-(4-((R)-4-((7^1R,7^3S,E)-1^3-ethyl-1^1,2^6-dimethyl-3-oxo-5^2,5^3-dihydro-1^1H,5^1H-9-oxa-4-aza-5(2,1)-benzo[d]imidazola-2(2,4)-pyridina-1(4,5)-pyrazola-7(1,3)-cyclopentanacyclononaphane-5^6-yl)-2-(methoxymethyl)piperazin-1-yl)piperidin-1-yl)-2,6-difluorophenyl)piperidine-2,6-dione] gave a DC50 of 4.07 nM and a maximal degradation (Dmax) of 88.7%. For the same compound, in assay [2], half-maximal degradation (DC50) was put at 7.25 nM and the greatest degradation seen (Dmax) was 83.9%. Also, in assay [3], the “Imax (%)” value is reported as 100.72% and the IC50 amounted to 1.28 nM. In assay [4], the “Imax (%)” value amounted to 98.51% and inhibition was half-maximal at 2.83 nM (IC50).

In the case of `COC[C@@H]1CN(c2ccc3c(c2)N2C[C@@H]4CC[C@H](COc5c(cnn5C)-c5cc(cc(C)n5)C(=O)/N=C/2N3)C4)CCN1CC1CN(c2ccc3c(c2)C(=O)N(C2CCC(=O)NC2=O)C3=O)C1` (stereo partly drawn) [Example 69, 5-(3-(((S)-4-((7^1R,7^3S,E)-1^1,2^6-dimethyl-3-oxo-5^2,5^3-dihydro-1^1H,5^1H-9-oxa-4-aza-5(2,1)-benzo[d]imidazola-2(2,4)-pyridina-1(4,5)-pyrazola-7(1,3)-cyclopentanacyclononaphane-5^6-yl)-2-(methoxymethyl)piperazin-1-yl)methyl)azetidin-1-yl)-2-(2,6-dioxopiperidin-3-yl)isoindoline-1,3-dione], in assay [1], half-maximal degradation (DC50) was put at 3.2 nM and the maximal degradation (Dmax) was determined as 89.3%. Besides, in assay [2], it took 5.24 nM to reach half-maximal degradation (DC50) and the maximal degradation (Dmax) worked out at 62.4%. Besides, in assay [3], the “Imax (%)” value is 100.1% and inhibition was half-maximal at 1.8 nM (IC50). Moreover, in assay [4], the “Imax (%)” value is on record as 99.9% and the IC50 was 5.7 nM.

With `COC[C@@H]1CN(c2ccc3c(c2)N2CC4CC[C@H](COc5c(c(C(F)F)nn5C)-c5cc(cc(C)n5)C(=O)/N=C/2N3)C4)CCN1C1CCN(c2cc(F)c([C@H]3CCC(=O)NC3=O)c(F)c2)CC1` [Example 85, (R)-3-(4-(4-((S)-4-((7^1R,7^3S,E)-1^3-(difluoromethyl)-1^1,2^6-dimethyl-3-oxo-5^2,5^3-dihydro-1^1H,5^1H-9-oxa-4-aza-5(2,1)-benzo[d]imidazola-2(2,4)-pyridina-1(4,5)-pyrazola-7(1,3)-cyclopentanacyclononaphane-5^6-yl)-2-(methoxymethyl)piperazin-1-yl)piperidin-1-yl)-2,6-difluorophenyl)piperidine-2,6-dione], the half-maximal degradation concentration (DC50) in assay [1] is 4.23 nM; in assay [2] it was 4.91 nM. Also, the greatest degradation seen (Dmax) in assay [1] worked out at 78%; in assay [2], 83%. The figures for the “Imax (%)” value in assay [3] and in assay [4] were 99.7% and 97.5%, respectively. For the same compound, the IC50 in assay [3] was 3.1 nM; in assay [4], 11.6 nM.
